One experiment has as its system G-CSF promoter. Description: G-CSF promoter-luciferase induction by known inducers, clone G 1002 (5637 cells). The experiment is classed as cell-based, human. From the text:
Cloning of G-CSF sequences is described in Experimental Details, section B-3. In order to correctly fuse the G-CSF upstream sequences to the luciferase start codon, oligonucleotides were synthesized which contain the G-CSF leader sequence from +15 to the ATG (32), and were cloned into pUC19 to create pGUC84 (FIG. 29). […] The G-CSF-oligonucleotide-containing NcoI/ScaI fragment from pGUC84 was then isolated and ligated to the luciferase-containing NcoI/ScaI fragment from pUV100 to create pGUV100 (FIG. 30). Following this, the PstI fragment of the G-CSF promoter was isolated form pJM710 (FIG. 7) and inserted into the PstI site in pGUV100 generating pGUV1(FIG. 31). The rest of the G-CSF promoter clone was added by ligating the G-CSF-luciferase containing SfiI/ScaI fragment from pGUV1 to the appropriate SfiI/ScaI fragment from pJM710, creating the plasmid pGUV2 (FIG. 32). The XbaI fragment from pGUV2 containing the G-CSF-luciferase fusion was then cloned into pUV103 previously digested with XbaI/SpeI, generating pGUV140 (FIG. 33). Finally, a TK-Neo cassette (Section C) was included by ligating the ScaI/XbaI fragment from pGUV140 which contains the G-CSF-luciferase fusion into pTKNEO103 previously digested with ScaI/XbaI, yielding the final vector pGUV150 (FIG. 34).
All the following constructs were transfected into 5637 bladder carcinoma cells either by electroporation using a BRL (Gaithersburg, Md.) Cellporator electroporation device or by lipofection using BRL lipofectin and following the manufacturer's protocol. For electroporation, cells were trypsinized, treated with Soybean trypsin inhibitor (1 mg/ml), washed three times in Dulbecco's modified Eagle's medium (DMEM) without pH indicator, and 1 ml of cell suspension in DMEM was electroporated at room temperature and at a cell density of 5 million cells per ml at a voltage of 250 V and a capacitance of 1180 microFarad with the electroporation device set at low resistance. In previous experiments these parameters had been determined to result in optimal electroporation efficiency. About 15 min after electroporation cells were recovered from the disposable electroporation containers (BRL, Gaithersburg, Md.) and plated in RPMI containing 10% fetal calf serum. 2 days after electroporation 0.4 mg/ml G 418 were added and clonal cell colonies were picked 14-20 days after transfection. Clones were first analysed for luciferase expression using Lysis Buffer 1 without bovine serum albumin (see Section F) and those testing positive expanded further and frozen in liquid nitrogen. Further analysis of 6 clones (G 1002, G 2005, G 2071, G 2085, G 3014, G3031) included Southern blotting, reaction to known inducers, satisfactory attachment to microtiter plates and acceptable standard deviation in multiple luciferase expression assays. Clones G 2005 and G 2085 were derived from 5637 cells lipofected with 100 ug/ml of linearized pGVU150 (FIG. 34), G 3031 descends from cells electroporated with 100 ug/ml of linearized pGVU150, whereas 200 ug/ml of the same plasmid were used to generate G 3014. Cotransfection of circular pGVU140 (FIG. 33) with circular pTKNeo3 (FIG. 19) was used to generate clones G 1002 and G 2071. While G 1002 resulted from co-electroporation of 50 and 5 ug/ml of the two plasmids, G 2071 descends from cells lipofected with 100 and 10 ug.
Cell clones with correctly integrated promoter/reporter constructs were analysed for correct reaction to known transcriptional inducers. […] Both TNF-alpha- and PMA-induction levels of clone G 1002 were influenced by the presence or absence of epidermal growth factor (EGF). […] The 9.3fold induction by PMA in the absence of EGF was reduced to 5.6fold by including EGF in the serum-free incubation mixture. Similar differences were observed, when EGF was substituted by 10% fetal calf serum.

A further experiment deals with secreted G-CSF protein. In words: Two-antibody sandwich immunoassay of G-CSF secreted by 5637 bladder carcinoma cells. The experiment is classed as cell-based, human. As to conditions: 5637 cells, 48 hours, serum-containing media; TNF-alpha 5 ng/ml; #542 50 uM; #1780 1 uM and 0.2 uM; FIG. 55. Here is the method: Supernatants from 5637 bladder carcinoma cells incubated with chemicals registering as positives in the G-CSF promoter/luciferase High-Throughput assay were assayed for secreted G-CSF protein using the two-antibody sandwich immunoassay (96). The G-CSF Assay kit manufactured by Oncogene Science, Inc. was used and the manufacturer's instructions were followed.
The levels of G-CSF in the cell supernatants were determined by a sandwich-antibody assay as described in Materials and Methods (FIG. 55).

The mark [1] stands for this setting: 7-hour incubation, serum-free defined media with 20 ng/ml EGF.
[2] abbreviates: 7-hour incubation, serum-free defined media, absence of EGF.
Setting [3] is: 10.5 hours, serum-containing media, 8.3 ng/ml TNF-alpha, 20 ng/ml PMA, 0.5 ng/ml Interleukin-1 beta, or mixtures as labelled.

On to `CCCCCCCCCCCCCC(=O)O[C@@H]1[C@@H](C)[C@@]2(O)[C@@H](C=C(CO)C[C@]3(O)C(=O)C(C)=C[C@@H]23)[C@@H]2C(C)(C)[C@]12OC(C)=O` [PMA, phorbo-myristate-acetate, reference compound], for which the results for the “G-CSF promoter induction, clone G 1002” value with G-CSF promoter (setting [1]), in the experiment on G-CSF promoter (setting [2]) and with G-CSF promoter (setting [3]) were 5.6 fold, 9.3 fold and 4.4 fold, respectively.

TNF-alpha: the entries for the “G-CSF promoter induction, clone G 1002” value in the experiment on G-CSF promoter (setting [1]), in the experiment with G-CSF promoter (setting [2]) and with G-CSF promoter (setting [3]) were 3 fold, 4 fold and 2 fold, respectively. In addition, the “G-CSF secretion into media” value with secreted G-CSF protein was “increased G-CSF secretion”.
